What is called IC50 is the concentration needed to halve the response being measured. Low values mean greater potency in that assay, high ones weaker potency in that assay.

For one test, the system named is total ATXN3 protein. The experiment in a line: ATXN3 total protein assay (Mesoscale Discovery). The test is classed as cell-based. To be noted: Human neuroblastoma SK-N-MC cells, 48 hours incubation, MSD assay. As for the experimental part: Human neuroblastoma SK-N-MC cells were seeded at 10,000 cells/well in 384 well plates one day prior to compound treatment. The concentrations of compounds were tested at appropriate doses ranging from 30 µM to 0.6 nM. After incubation for 48 hours, the cells were lysed with 25.L of lysis buffer containing protease inhibitors, and total ATXN3 protein levels were assessed by Mesoscale Discovery (MSD) assay developed with one pair of and-ATXN3 antibodies. The capture and detect antibodies were raised in mouse and rabbit respectively. Anti-rabbit MSD-ST antibody was used for secondary antibody.
ATXN3 recombinant protein was used for standards. The readouts were captured with 35.L of MSD read buffer and multi-array 384-well high binding plates.

Test [1] has as its system ATXN3 transcripts containing exon 4. The experiment in a line: ATXN3 quantitative splicing assay (qPCR, E4E5 transcripts containing exon 4). The test is classed as cell-based. Conditions: Human neuroblastoma SK-N-MC cells, 24 h treatment, qPCR primers/probe E4E5. As for the experimental part: Human neuroblastoma SK-N-MC cells were plated in 384-well plates at 20,000 cells/well. Twenty-four hours after plating, cells were treated with compounds for 24 h at appropriate concentrations ranging from 30 μM to 0.6 nM (0.3% DMSO). Treated cells were lysed in 15 μL of lysis buffer, and cDNA was synthesized using the Fast Advanced Cells-to-Ct kit. Two μL of each cDNA was used in qPCR reactions to confirm the exon 4 skipped transcripts of ATXN3. A second set of primers/probe E4E5 was used to detect the transcripts containing exon 4. The third set of primers/probe E8E9 was used to detect total gene level of ATXN3. The qPCR reactions were prepared in 384-well plates in 10.L volume, using TaqMan™ Fast Advanced Master Mix with primers and probes shown in the table below. Reactions were run in a Quant Studio 6 qPCR instrument with default settings.
The primers and probes are listed below in Table 5.

Take `C[C@H](N)Cc1sc2c(NCc3nccs3)snc2c1Cl` [Compound 76, 7-[(S)-2-aminopropyl]-8-chloro-4-{[(1,3-thiazol-2-yl)methyl]amino}-3,6-dithia-2-azabicyclo[3.3.0]octa-1,4,7-triene]: the IC50 (with total ATXN3 protein; in test [1]) was 0.101 to 0.5 µM each time.
Regarding `CC(=O)N[C@@H](C)Cc1sc2c(NCc3cccs3)snc2c1C` [Compound 79, N-[(2S)-1-{6-methyl-3-[(thiophen-2-ylmethyl)amino]thieno[3,2-c][1,2]thiazol-5-yl}propan-2-yl]acetamide], the 50% inhibitory concentration (IC50) (in the test with total ATXN3 protein; in test [1]) was 10 to 40 µM throughout.
On to `N[C@H](Cc1sc2c(NCc3cccs3)snc2c1Br)C1CC(F)(F)C1` [Compound 80, 7-[(R)-2-amino-2-(3,3-difluorocyclobutyl)eth-yl]-8-bromo-4-thenylamino-3,6-dithia-2-azabicyclo[3.3.0]octa-1,4,7-triene], for which the 50% inhibitory concentration (IC50) in the test with total ATXN3 protein is 5 to 10 µM; in test [1], 0.501 to 5 µM.
The like results for `C[C@H](N)Cc1sc2c(NCc3ccco3)snc2c1C(F)(F)F` [Compound 81, 7-[(S)-2-aminopropyl]-4-(furfurylamino)-8-(trifluoromethyl)-3,6-dithia-2-azabicyclo[3.3.0]octa-1,4,7-triene] were, in that order, 0.501 to 5 µM and 0.501 to 5 µM.
The matching figures for `FC(F)(F)c1csc2c(NCc3ccco3)snc12` [Compound 82, (furfuryl){8-(trifluoromethyl)-3,6-dithia-2-azabicyclo[3.3.0]octa-1,4,7-trien-4-yl}amine]: 10 to 40 µM and 10 to 40 µM.
The like results for `Cc1c(C[C@@H](N)C2CC(F)(F)C2)sc2c(NCc3cccs3)snc12` [Compound 84, 7-[(R)-2-amino-2-(3,3-difluorocyclobutyl)eth-yl]-8-methyl-4-thenylamino-3,6-dithia-2-azabicyclo[3.3.0]octa-1,4,7-triene] were, in that order, 5 to 10 µM and 0.501 to 5 µM.
As for `CSc1c(C[C@H](C)N)sc2c(NCc3ccco3)snc12` [Compound 85, 7-[(S)-2-aminopropyl]-4-(furfurylamino)-8-(methylthio)-3,6-dithia-2-azabicyclo[3.3.0]octa-1,4,7-triene], the 50% inhibitory concentration (IC50) is 10 to 40 µM with total ATXN3 protein and 5 to 10 µM in test [1].
The matching figures for `C[C@H](N)Cc1sc2c(NCc3cccs3)snc2c1CO` [Compound 87, {7-[(S)-2-aminopropyl]-4-thenylamino-3,6-dithia-2-azabicyclo[3.3.0]octa-1,4,7-trien-8-yl}methanol]: 10 to 40 µM and 10 to 40 µM.
The matching figures for `CC(=O)Nc1csc2c(NCc3cccs3)snc12` [Compound 88, N-(4-thenylamino-3,6-dithia-2-azabicyclo[3.3.0]octa-1,4,7-trien-8-yl)acetamide]: 10 to 40 µM and 10 to 40 µM.
The matching figures for `N[C@H](Cc1sc2c(NCc3cccs3)snc2c1Cl)C(CO)CO` [Compound 89, 2-{(R)-1-amino-2-(8-chloro-4-thenylamino-3,6-dithia-2-azabicyclo[3.3.0]octa-1,4,7-trien-7-yl)ethyl}-1,3-propanediol]: 0.501 to 5 µM and 5 to 10 µM.
As to `CSc1csc2c(NCc3ccco3)snc12` [Compound 90, (furfuryl){8-(methylthio)-3,6-dithia-2-azabicyclo[3.3.0]octa-1,4,7-trien-4-yl}amine], the IC50 (in the test on total ATXN3 protein; in test [1]) was 10 to 40 µM each time.
For `C[C@H](F)[C@H](N)Cc1sc2c(NCc3sccc3F)snc2c1Br` [Compound 93, 7-[(2R,3S)-2-amino-3-fluorobutyl]-8-bromo-4-{[(3-fluoro-2-thienyl)methyl]amino}-3,6-dithia-2-azabicyclo[3.3.0]octa-1,4,7-triene], the concentration for half-maximal inhibition (IC50) (in the test with total ATXN3 protein; in test [1]) was 0.501 to 5 µM throughout.
For `C[C@@H](F)[C@H](N)Cc1sc2c(NCc3sccc3F)snc2c1Cl` [Compound 94, 7-[(2R,3R)-2-amino-3-fluorobutyl]-8-chloro-4-{[(3-fluoro-2-thienyl)methyl]amino}-3,6-dithia-2-azabicyclo[3.3.0]octa-1,4,7-triene], the IC50 (in the test on total ATXN3 protein; in test [1]) was 5 to 10 µM throughout.

The values are drawn from patent publication US20250340570A1, “COMPOSITIONS USEFUL FOR MODULATING SPLICING” (Skyhawk Therapeutics, Inc., priority 2022, published 2025).
